Laboratory results reported in patent US20250195510A1, “NOVEL METHODS” (priority 2022, published 2025).

Assays:
Sprague-Dawley rats = experiment: Novelty Induced Hypophagia (NIH); type: in vivo, rat; conditions: naïve rats, Luma 1 mg/kg IP days 1 and 3; control 65.4
Method: Behavioral Evaluation. All behavioral tests are performed in the morning with adult male Sprague-Dawley rats (n=9-11 per group for the experiments with LPS, and n=13-14 per group for the naïve rats).
Novelty Induced Hypophagia (NIH). This conflict-based behavioral task assesses the impact of environmental stressors on conditioned approach response for a palatable food reward (Ramaker and Dulawa, 2017). Rats are habituated with diluted (1:3 milk/water) sweetened condensed milk which is accessible in their home cage for 1 hour each day for 3 consecutive days. Initially, animals are tested in their home cage under normal lighting. For testing after drug treatment, the latency to drink is recorded after rats are placed in a novel clean cage of the same dimensions with no bedding and under dim lighting (˜50 lux) with white paper under the cages to enhance aversion.
Basal levels of anxiety are also tested using 2 commonly used tests, NSFT and novelty induced hypophagia (NIH), in the absence of LPS. It is well documented that rodents experience increased stress levels when placed in a novel environment (Ramaker and Dulawa, 2017). These two tests exploit this feature by measuring latency to feed in food-deprived rats (NSFT), or latency to receive a reward to which they have been habituated prior to the test (NIH).

[1] = system: inflammatory biomarkers in PBMCs; experiment: Post-hoc analysis of inflammatory biomarkers in PBMCs, phase 3 trial, schizophrenia with co-morbid depression; type: in vivo, human; conditions: Day 28, 60 mg lumateperone tosylate once daily
Method: A randomized, double-blind, placebo-controlled, phase 3 clinical trial was conducted with 450 patients with schizophrenia, aged 18 to 60 years, who were experiencing an acute exacerbation of psychosis. Patients were included if they were experiencing an acute exacerbation of psychosis, defined as a total score on the Brief Psychiatric Rating Scale of […] or higher, with a score of 4 or higher on 2 or more positive symptoms, and onset of the acute episode within 4 weeks of screening. Patients were required to have a score of 4 or higher, indicating moderate to severe disease severity, on the Clinical Global Impression-Severity of Illness (CGI-S) at screening and baseline. Severity of illness was confirmed at baseline by a Positive and Negative Syndrome Scale (PANSS) total score of 70 or higher, indicating moderate to extreme symptoms of schizophrenia. A subgroup of these patients experienced co-morbid depression symptoms at baseline (defined as having a Calgary Depression Scale for Schizophrenia (CDSS) score greater than 6 at baseline). Full details of the clinical study were reported in Correll et al., JAMA Psychiatry, 77 (4): 349-358 (2020).
Patients were randomized 1:1:1 (150 patients in each arm) to receive, once daily for 28 days, cither 60 mg lumatepcrone tosylate (42 mg free base), 40 mg lumatepcrone tosylate (28 mg free base), or placebo.
Using blood samples stored from the study, a post-hoc analysis of inflammatory biomarkers in PBMCs from the patients with schizophrenia and co-morbid depression is conducted. […] Day 0 samples are available for 20 patients, while day 28 samples are available only for 18 patients. Mean baseline CDSS is 10.0, and mean baseline PANSS total score is 88.7 in the selected patients.
Samples were processed to isolate PBMC according to standard procedures using the Ficoll-Paque method. Statistical analysis was performed using the paired t-test, two-tailed. Samples were tested for C-reactive protein (CRP), serum amyloid A (SAA), soluble ICAM-1, soluble VCAM-1, IL-1β, TNF-α, IL-6, IL-10, IL-2, IL-8, IL-13, and IFN-γ. ICAM-1 and VCAM-1 are expressed by the vascular endothelium, macrophages, and lymphocytes. Upon cytokine stimulation, their concentrations greatly increase. ICAM-1 can be induced by IL-1ß and TNF. ICAM and VCAM proteins may also be involved in pathogen transit into CNS.
The results are shown in the table below (biomarker levels expressed in ng/ml; some values of N are less than the patient totals due to samples with levels of biomarker below the minimum for quantification): […]

CN1CCN2c3c(cccc31)[C@@H]1CN(CCCC(=O)c3ccc(F)cc3)CC[C@@H]12 [Lumateperone, 4-((6bR,10aS)-3-methyl-2,3,6b,9,10,10a-hexahydro-1H-pyrido[3′,4′: 4,5]pyrrolo[1,2,3-de]quinoxaline-8 (7H)-yl)-1-(4-fluorophenyl)-1-butanone]
NIH - novel cage latency to drink (Sprague-Dawley rats): 30.5 s
IL-10 level in PBMC, Median ([1]; Day 0 0.07): 0.21 ng/mL
IL-10 level in PBMC, Average ([1]; Day 0 0.09): 2.14 ng/mL
IL-2 level in PBMC, Median ([1]; Day 0 0.17): 0.25 ng/mL
IL-2 level in PBMC, Average ([1]; Day 0 0.18): 0.37 ng/mL
IL-6 level in PBMC, Median ([1]; Day 0 0.18): 0.32 ng/mL
IL-6 level in PBMC, Average ([1]; Day 0 0.20): 0.55 ng/mL
TNF-α level in PBMC, Average ([1]; Day 0 0.27): 0.83 ng/mL
TNF-α level in PBMC, Median ([1]; Day 0 0.27): 0.43 ng/mL
IFN-γ level in PBMC, Median ([1]; Day 0 1.01): 0.71 ng/mL
IFN-γ level in PBMC, Average ([1]; Day 0 1.11): 0.86 ng/mL
IL-13 level in PBMC, Median ([1]; Day 0 1.11): 1.56 ng/mL
IL-13 level in PBMC, Average ([1]; Day 0 1.31): 2.38 ng/mL
IL-1β level in PBMC, Median ([1]; Day 0 1.65): 0.74 ng/mL
IL-1β level in PBMC, Average ([1]; Day 0 1.76): 1.01 ng/mL
IL-8 level in PBMC, Median ([1]; Day 0 36.3): 44.0 ng/mL
sVCAM-1 level in PBMC, Median ([1]; Day 0 60.1): 42.0 ng/mL
CRP level in PBMC, Median ([1]; Day 0 61.3): 38.0 ng/mL
IL-8 level in PBMC, Average ([1]; Day 0 74.5): 105.3 ng/mL
CRP level in PBMC, Average ([1]; Day 0 78.8): 50.5 ng/mL
sVCAM-1 level in PBMC, Average ([1]; Day 0 78.9): 49.1 ng/mL
sICAM-1 level in PBMC, Median ([1]; Day 0 136.9): 83.6 ng/mL
sICAM-1 level in PBMC, Average ([1]; Day 0 184.8): 119.6 ng/mL
SAA level in PBMC, Median ([1]; Day 0 233.6): 147.3 ng/mL
SAA level in PBMC, Average ([1]; Day 0 286.9): 157.9 ng/mL
